Experimental data published in ChEMBL document CHEMBL1149978, “Synthesis of adamantane spiro sultones as potential antiviral agents” (Bioorg Med Chem Lett, 1992).
Calls of active or inactive are those of the source.

Experiments:
[1] = tested on: Human respirovirus 3; assay: Antiviral activity against parainfluenza-3 at concentrations up to 200 ug/mL; NA means Inactive; type: functional, organism-based
[2] = tested on: Influenza B virus; assay: Antiviral activity against influenza-B at concentrations up to 200 ug/mL; NA means Inactive; type: functional, organism-based
[3] = tested on: Influenza A virus; assay: Antiviral activity against influenza-A at concentrations up to 200 ug/mL; NA means Inactive; type: functional, organism-based
[4] = Antiviral activity against respiratory syncytial at concentrations up to 200 ug/mL; NA means Inactive; type: functional
[5] = tested on: Human immunodeficiency virus 2; assay: Antiviral activity against human immunodeficiency virus type 2 (HIV-2) at concentrations up to 200 ug/mL; NA means Inactive; type: functional, organism-based
[6] = Antiviral activity against measles at concentrations up to 200 ug/mL; NA means Inactive; type: functional
[7] = tested on: Human immunodeficiency virus 1; assay: Antiviral activity against human immunodeficiency virus type 1 (HIV-1) at concentrations up to 200 ug/mL; NA means Inactive; type: functional, organism-based

Measured: Activity

O=C1CS(=O)(=O)OC12C1CC3CC(C1)CC2C3 (configuration not stated)
inactive: [1] | [2] | [3] | [4] | [5] | [6] | [7]

NC1=CS(=O)(=O)OC12C1CC3CC(C1)CC2C3 (configuration not stated)
inactive: [1] | [2] | [3] | [5] | [7]
